# Measured values as given in PMC8000447, “Assessment of Finite and Infinite Dose In Vitro Experiments in Transdermal Drug Delivery” (Pharmaceutics, 2021).
# “And” between values parts separate entries of the source, which are not always exact repeats. Identical values can stand only once.
# Tests used:
# [1] = Penetration assay with finite dosage using vertical Franz diffusion cells; type: in vitro ADME, pig; details: 24 h; for % API detected in dermis (D) / % API detected in epidermis (E) / % API detected in receptor fluid (RF) / % API detected in stratum corneum (SC): finite dose 20 µL in propylene glycol, normalized amount, mean ± SD, n = 3; for % API total permeation (Perm): sum of epidermis, dermis and receptor fluid, finite dose 20 µL
# Description: (§1) A porcine skin membrane was employed for both the permeation and penetration assays. […] The skin was provided by the Department of Cardiology of the Hospital Clinic (Barcelona, Spain). Dorsal unboiled skin (female white/landrace pigs) was prepared: the bristles were removed (A5 Clipper 78005-500, Oster professional, McMinnville, OR, USA) and dermatomed (Dermatome GA630, Aesculap, Tuttlingen, Germany) at 500 ± 50 μm thick. Thickness was verified with a digital micrometer 40EX (Mahr, Göttingen, Germany). Skin biopsies were cut into discs with 2.5 cm diameter. The skin discs were stored until the experiment (at −20 °C).
# OECD guidelines and the published opinions of the Scientific Committee on Cosmetic Products and Non-Food Products (SCCS) were adhered in the penetration protocol. The excised pig skin was placed in a static Franz diffusion cell (Lara Spiral, Couternon, France) (1.86 cm^2 and 3 mL) with the dermis side facing the acceptor chamber. The receptor chamber was filled with receptor fluid. The receptor fluid was the same used in the kinetic assay (Section 2.4). Air bubbles entrapped below the skin were carefully removed and the assembled cells were deposited in a temperature-regulated water bath (Telesystem HP 15, H+P Labortechnik GmgH, Oberschleissheim, Germany) on top of a water-resistant magnetic stirring plate (Variomag 15 and Telemodul, H+P Labortechnik GmgH, Oberschleissheim, Germany). The homogeneity of receptor fluid was maintained by continuously stirring at 700 rpm. The system was thermostatted at 43 ± 1 °C to provide a skin surface temperature of 32 ± 1 °C.
# The integrity and permeability of membranes were evaluated with the trans-epidermal water loss (TEWL) value as detailed in Section 2.3.
# The finite assay protocol was conducted as described in previous studies. Briefly, 20 µL of each API solution was applied to the skin surface in the donor chamber (n = 3). According to the OECD methodology used, penetration studies were performed for 24 h. After the exposure time, the receptor fluid of all the membranes was collected to transfer to a 5 mL volumetric flask. The remaining API solution was removed from skin surface with specific washing procedure (W). Stratum corneum layers were obtained by tape stripping protocol with adhesive tape (D-Squame, Cuderm Corporation, Dallas, TX, USA) applied under controlled pressure (80 g/cm^2). Viable epidermis (E) and the dermis (D) were separated after heating the skin at 80 °C for several seconds. All samples were extracted with adequate solvent (Table 1) and filtered with a 0.45 µm Nylon filter (Cameo, Sigma-Aldrich, St. Louis, MO, USA) before HPLC quantification (Section 2.6).
# The amount permeated in the skin was considered the sum of that in the epidermis, dermis, and receptor fluid. […]
# [2] = Kinetic permeation assay with infinite dosage using vertical Franz diffusion cells; type: in vitro ADME, pig; details: infinite dose 300 µL in propylene glycol (DS 3%, IBU 1%, LIDO 2%, CAF 1% w/v); for Papp / AUC / Cmax: female, white/landrace, pig; for Papp / AUC / Cmax / J (flux) / AUC (%): mean ± SD; for Papp / J (flux): n = 3; for Papp: read-out: Kp (permeability coefficient) (converted); for AUC / Cmax: receptor fluid; for AUC: read-out: AUC (area under the curve); for Cmax: read-out: Cmax (maximum concentration); for Kin. of release (best-fitting kinetic model): up to 30 h; for AUC (%): percentage release
# Description: as §1
# The kinetic diffusion assay was conducted using a Vision Microette (Vision G2 V14.1) with an Autosampler and an Autofill Collector (Hanson Research, Chatworths, CA, USA) automated vertical diffusion cell (7 mL acceptor chamber, and surface area of application of 1.77 cm^2).
# The receptor fluid (RF) used was aqueous buffer solution of PBS in the case of DS, IBU, and CAF, and NaH2PO4 (0.05 M, pH = 7) in the case of LIDO. Receptor fluid was continuously stirred with magnetic beads at 700 rpm to keep the contents of the receptor chamber homogenous. The system was thermostatted at 43 ± 1 °C to provide a skin surface temperature of 32 ± 1 °C.
# Once TEWL was measured, 300 μL (infinite dose) of the four active solutions was applied in triplicate to each Franz cell (Hanson Research, Chatworths, CA, USA) and donor compartment was sealed to donor chamber to avoid evaporation. Samples (700 µL) were collected at specific times (15 min, 30 min, 1 h, 2 h, 4 h, 6 h, 10 h, 20 h, and 30 h), and automatically passed into the corresponding vial. The same volume of receptor fluid was automatically replaced with fresh solution at each sampling. The content of receptor samples was diluted in 2 mL graduated flasks and filtered with a 0.45 µm nylon filter (Cameo, Sigma-Aldrich, St Louis, MO, USA) previous analyzed with a high-performance liquid chromatography-diode array detector (HPLC-DAD) (Section […]). The kinetics of penetration were determined, simulating the drug elimination in the body.
# The cumulative amount of the active pharmaceutical ingredient (API) per surface area (Qn, µg/cm^2) was obtained for each replicate cell to calculate the release of the four APIs. The equation used to determine the cumulative amount of API in the receptor fluid was the following Equation (1):(1) Qn= Cn×Vc+ ∑i=1n−1Ci×Vs/A where Qn is the cumulative amount of API released at time n (μg/cm^2); Cn is the concentration of active ingredient in the sample (μg/mL); Vc is the volume of the vertical diffusion cell; ∑i=1n−1 Ci is the sum of the concentrations of API (µg/mL) determined at sampling intervals 1 through n − 1; Vs is the sample volume and A is the surface area of the sample.
# The percentage of cumulative amount of API permeated over time was calculated by the following Equation (2):(2) % Release API= Qn/Total amount of API applied×100
# Experimental data of cumulative amount (Qn and % Release API) were plotted versus time or its square root ( t ) to obtain the API absorption and penetration kinetics. Different mathematical model (Zero-order, First-order and Higuchi) were evaluated with the non-linear regression software STATGRAPHICS plus 5 (Statgraphics Technologies, Inc., The Plains, VA, USA). The best-fitting model was selected according to the highest correlation coefficient value (r^2) and it was possible to calculate other parameters, such as flux (J), the permeability coefficient (Kp), lag time (Tl), the maximum concentration (Cmax), the maximum time (tmax), and the area under the curve (AUC).
SMILES,% API detected in dermis (D) [1] [%],% API detected in epidermis (E) [1] [%],% API detected in receptor fluid (RF) [1],% API detected in stratum corneum (SC) [1],% API total permeation (Perm) [1] [%],Papp [2] [×10⁻⁶ cm/s],AUC [2] [µg·h/mL],Cmax [2] [ng/mL],J (flux) [2] [µg/cm^2/h],Kin. of release (best-fitting kinetic model) [2],AUC (%) [2] [%]
"Cn1c(=O)c2c(ncn2C)n(C)c1=O [Caffeine, caffeine]",0.55 ± 0.09,0.55 ± 0.23,3.62 ± 1.75%,3.11 ± 2.33%,4.72 ± 1.87,0.0242,72.8 ± 32.6,13900 ± 1590,0.86 ± 0.07,Ord 0,4.55 ± 3.31
"CC(C)Cc1ccc(C(C)C(=O)O)cc1 (stereo not drawn) [Ibuprofen, ibuprofen]",2.79 ± 0.37,2.92 ± 0.61,53% and 52.68 ± 5.01%,11% and 11.06 ± 1.15%,58.39 ± 6.32,0.0694,163 ± 28.3,66700 ± 16100,2.60 ± 0.69,Ord 0,38.97 ± 4.56
O=C(O)Cc1ccccc1Nc1c(Cl)cccc1Cl [Diclofenac sodium],1.41 ± 0.49,5.54 ± 2.41,8.53 ± 3.99%,8.08 ± 2.62%,15.49 ± 6.89,0.0442,168 ± 38.5,38100 ± 10000,3.94 ± 0.77,Ord 0,15.43 ± 4.41
